# Results from patent publication US11746116B2, “Antibiotic resistance breakers” (KING'S COLLEGE LONDON, priority 2017, dated 2023).
# Where “and” joins values, the source holds several entries; their conditions need not be identical. Equal entries are not always repeated.
# Legend:
# VSE775 = experiment: MIC, microdilution broth method; type: cell-based, Enterococcus faecalis; set-up: MIC, VSE775: unit not given beside the values; settings: for MIC, VSE775: ESKAPE panel, Gram-positive
# PA01 = experiment: MIC, microdilution broth method; type: cell-based, Pseudomonas aeruginosa; settings: for MIC, PA01: ESKAPE panel, Gram-negative, in µg/mL
# PA13437 = experiment: MIC, microdilution broth method; type: cell-based; settings: ESKAPE panel, Gram-negative
# EMRSA16 = experiment: MIC, microdilution broth method; type: cell-based, Staphylococcus aureus; settings: for MIC, EMRSA16: in µg/mL
# KP13368 = experiment: MIC, microdilution broth method; type: cell-based; settings: for MIC, KP13368: ESKAPE panel, Gram-negative
# EMRSA15 = experiment: MIC, microdilution broth method; type: cell-based, Staphylococcus aureus; settings: for MIC, EMRSA15: in µg/mL
# VRE12204 = experiment: MIC, microdilution broth method; type: cell-based, Enterococcus faecium; settings: ESKAPE panel, Gram-positive; in µg/mL
# VRE12201 = experiment: MIC, microdilution broth method; type: cell-based, Enterococcus faecalis; settings: for MIC, VRE12201: ESKAPE panel, Gram-positive, in µg/mL
# EC12923 = experiment: MIC, microdilution broth method; type: cell-based; settings: for MIC, EC12923: ESKAPE panel, Gram-negative, in µg/mL
# AYE = experiment: MIC, microdilution broth method; type: cell-based, Acinetobacter baumannii; settings: for MIC, AYE: ESKAPE panel, Gram-negative, in µg/mL
# Ab17978 = experiment: MIC, microdilution broth method; type: cell-based; settings: for MIC, Ab17978: ESKAPE panel, Gram-negative, in µg/mL
# M6 = experiment: MIC, microdilution broth method; type: cell-based; settings: for MIC, M6: ESKAPE panel, Gram-negative, in µg/mL
# MSSA9144 = experiment: MIC, microdilution broth method; type: cell-based, Staphylococcus aureus; settings: for MIC, MSSA9144: ESKAPE panel, Gram-positive, in µg/mL
# [1] = test system: Staphylococcus aureus ATCC29213; experiment: Murine thigh infection model, thigh bacterial burden; type: in vivo; settings: individual thigh samples, ICR mice
"MIC, VSE775 (VSE775)","MIC, PA01 (PA01)","MIC, PA13437 (PA13437) [µg/mL]","MIC, EMRSA16 (EMRSA16; ESKAPE panel, Gram-positive)","MIC, KP13368 (KP13368) [µg/mL]","MIC, EMRSA15 (EMRSA15; ESKAPE panel, Gram-positive)","MIC, VRE12204 (VRE12204)","MIC, VRE12201 (VRE12201)","MIC, EC12923 (EC12923)","MIC, AYE (AYE)","MIC, Ab17978 (Ab17978)","MIC, M6 (M6)","MIC, MSSA9144 (MSSA9144)",SMILES,further results
2,>32,> 32,8,> 32,8,4,1,4,>32,4,4,0.25,C[C@H]1COc2c(N3CC[C@H](Nc4ncccn4)C3)c(F)cc3c(=O)c(C(=O)O)cn1c23 [KSN-L19],
4,>32,> 32,>32,> 32,32,16,1,0.5,>32,2,16,0.5,"C[C@H]1COc2c(N3CC[C@H](Nc4cc(NC5CC5)ncn4)C3)c(F)cc3c(=O)c(C(=O)O)cn1c23 [KSN-L21, (S)-10-((S)-3-((6-(cyclopropylamino)pyrimidin-4-yl)amino)pyrrolidin-1-yl)-9-fluoro-3-methyl-7-oxo-2,3-dihydro-7H-[1,4]oxazino[2,3,4-ij]quinoline-6-carboxylic acid]",
≤0.125,4,> 32,1,32,0.5,1,≤0.125,0.125,4,≤0.125,2,≤0.125,"C[C@H]1COc2c(N3CC[C@@H](Nc4ncc(F)cn4)C3)c(F)cc3c(=O)c(C(=O)O)cn1c23 [KSN-L34, (S)-9-fluoro-10-((R)-3-((5-fluoropyrimidin-2-yl)amino)pyrrolidin-1-yl)-3-methyl-7-oxo-2,3-dihydro-7H-[1,4]oxazino[2,3,4-ij]quinoline-6-carboxylic acid]","MIC (VSE775; Enterococcus faecalis, Enterococcus (VRE775), Gram-Positive, read-out: MIC): ≤ 0.125 µg/mL; MIC (PA01; Pseudomonas aeruginosa (PA01), Gram-Negative, read-out: MIC): 4 µg/mL; MIC, EMRSA16 (EMRSA16; EMRSA16 (Table 16, role of the terminal pyrimidine ring)): 1; MIC (EMRSA16; Staphylococcus aureus (EMRSA16), Gram-Positive (Table 14), read-out: MIC): 1 µg/mL; MIC (KP13368; Klebsiella pneumoniae (KP13368), Gram-Negative, read-out: MIC): 32 µg/mL; MIC, EMRSA15 (EMRSA15; EMRSA15 (Table 16, role of the terminal pyrimidine ring)): 0.5; MIC (EMRSA15; Staphylococcus aureus, Staphylococcus aureus (EMRSA15), Gram-Positive (Table 14), read-out: MIC): 0.5 µg/mL; MIC (VRE12201; Enterococcus faecalis, Enterococcus (VRE12201), Gram-Positive, read-out: MIC): ≤ 0.125 µg/mL; MIC (EC12923; Escherichia coli (EC12923), Gram-Negative, read-out: MIC): 0.125 µg/mL; MIC (AYE; Acinetobacter baumannii (AYE), Gram-Negative, read-out: MIC): 4 µg/mL; MIC (Ab17978; Acinetobacter baumannii (AB17978), Gram-Negative, read-out: MIC): ≤ 0.125 µg/mL; MIC (M6; Klebsiella pneumoniae (M6), Gram-Negative, read-out: MIC): 2 µg/mL; MIC (MSSA9144; Staphylococcus aureus (MSSA9144), Gram-Positive, read-out: MIC): ≤ 0.125 µg/mL"

SMILES,"MIC, VSE775 (VSE775)","MIC, PA01 (PA01)","MIC, PA13437 (PA13437) [µg/mL]","MIC, EMRSA16 (EMRSA16; ESKAPE panel, Gram-positive)","MIC, KP13368 (KP13368) [µg/mL]","MIC, EMRSA15 (EMRSA15; ESKAPE panel, Gram-positive)","MIC, VRE12204 (VRE12204)","MIC, VRE12201 (VRE12201)","MIC, EC12923 (EC12923)","MIC, AYE (AYE)","MIC, Ab17978 (Ab17978)","MIC, M6 (M6)","MIC, MSSA9144 (MSSA9144)",further results
"C[C@H]1COc2c(N3CCC(Nc4ncccn4)C3)c(F)cc3c(=O)c(C(=O)O)cn1c23 (stereo partly drawn) [KSN-82-L7, (3S)-9-fluoro-3-methyl-7-oxo-10-(3-(pyrimidin-2-ylamino)pyrrolidin-1-yl)-2,3-dihydro-7H-[1,4]oxazino[2,3,4-ij]quinoline-6-carboxylic acid]",0.5,8-32,> 32,4,16,4,4,0.5,1,16-32,0.5,4-8,0.06,Bacterial burden data ([1]; 20 mg/kg): 6.42E+02 CFU/g and 1.94E+03 CFU/g and 1.60E+03 CFU/g and 3.05E+03 CFU/g and 1.51E+03 CFU/g and 1.18E+04 CFU/g and 2.48E+03 CFU/g and 3.92E+03 CFU/g and 5.78E+02 CFU/g and 1.80E+03 CFU/g; Bacterial burden data ([1]; 50 mg/kg): 5.94E+02 CFU/g and 2.63E+03 CFU/g and 2.00E+03 CFU/g and 1.44E+03 CFU/g and 9.34E+02 CFU/g and 1.14E+03 CFU/g and 2.58E+03 CFU/g and 1.98E+03 CFU/g and 5.78E+02 CFU/g and 1.70E+03 CFU/g
